Like-named read-outs stand apart in the source and are kept apart here.
Assays:
[1] = Pharmacokinetics of sorafenib and sorafenib N-oxide in rat plasma (HPLC-UV), sorafenib alone or with morphine; conditions: for increase of AUC0–t in the presence of morphine / increase of Cmax in the presence of morphine: ISOR+MF vs. IISOR, rats; for ratio sorafenib N-oxide/sorafenib, Cmax: metabolite/parent ratio; for AUC0–t / AUC0–∞ / Cmax: rat plasma; for Cmax: mean ± SD
Method: (§1) The supernatant volume for each time point used to prepare the HPLC sample was 20 μL.
(§2) An ammonium acetate 0.1 M, pH = 3.4 (eluent A) and acetonitrile (eluent B) (1:1, v/v) solution were used as a mobile phase. The flow rate was set at 1.0 mL/min. […] Lapatinib was used as the internal standard (IS).

[2] = rat, in vivo
Method: as §1, §2

[3] = in vivo; conditions: male, Wistar, rat, po, 100 mg/kg, Cl/F (apparent plasma clearance)
Method: as §1, §2

[4] = geometric mean ratio of the metabolite/parent ratio
[5] = geometric mean ratio, sorafenib + morphine vs. sorafenib alone
[6] = sorafenib 100 mg/kg p.o. + morphine 5 mg/kg i.p. (ISOR+MF, n = 8)
[7] = sorafenib 100 mg/kg p.o. alone (IISOR, n = 8)

In the case of `CNC(=O)c1cc(Oc2ccc(NC(=O)Nc3ccc(Cl)c(C(F)(F)F)c3)cc2)cc[n+]1[O-]` [sorafenib N-oxide], the “increase of AUC0–t in the presence of morphine” value [1] is reported as 61.9%, the “increase of Cmax in the presence of morphine” value [1] is reported as 145.5% and the “increase of AUC0–t in the presence of morphine” value ([1]; 'higher by') is reported as 0.6 fold. For the same compound, the “increase of Cmax in the presence of morphine” value ([1]; 'higher by') was 1.5 fold, the “ratio sorafenib N-oxide/sorafenib, AUC0–t: Gmean ratio (90% CI) ISOR+MF vs. IISOR” value [1, 4] was 1.07 (0.70; 1.65) and the “ratio sorafenib N-oxide/sorafenib, AUC0–∞: Gmean ratio (90% CI) ISOR+MF vs. IISOR” value [1, 4] was 0.89 (0.53; 1.51). For the same compound, the “ratio sorafenib N-oxide/sorafenib, Cmax: Gmean ratio (90% CI) ISOR+MF vs. IISOR” value [1, 4] was 1.03 (0.67; 1.61), the “AUC0–t Gmean ratio (90% CI) ISOR+MF vs. IISOR” value [1, 5] was 1.64 (1.14; 2.36) and the “AUC0–∞ Gmean ratio (90% CI) ISOR+MF vs. IISOR” value [1, 5] was 1.41 (0.95; 2.08). For the same compound, the “Cmax Gmean ratio (90% CI) ISOR+MF vs. IISOR” value [1, 5] was 2.15 (1.50; 3.08), the “kel Gmean ratio (90% CI) ISOR+MF vs. IISOR” value [1, 5] was 0.80 (0.47; 1.36) and the “t1/2 Gmean ratio (90% CI) ISOR+MF vs. IISOR” value [1, 5] was 1.25 (0.73; 2.13). The “tmax Gmean ratio (90% CI) ISOR+MF vs. IISOR” value [1, 5] was 0.76 (0.41; 1.39), the “ratio sorafenib N-oxide/sorafenib, Cmax” value ([1]; sorafenib + morphine (ISOR+MF, n = 8)) was 0.09 ± 0.07 (76.2) µg/mL and the “ratio sorafenib N-oxide/sorafenib, Cmax” value ([1]; sorafenib alone (IISOR, n = 8)) was 0.07 ± 0.02 (26.8) µg/mL. For the same compound, the “AUC0–t” value [1, 6] was 6.64 ± 2.44 (36.8) µg × h/mL, the “AUC0–∞” value [1, 6] was 9.39 ± 2.97 (31.6) µg × h/mL and the Cmax [1, 6] was 0.27 ± 0.16 (57.5) µg/mL. For the same compound, the “AUC0–t” value [1, 7] was 4.10 ± 1.56 (38.1) µg × h/mL, the “AUC0–∞” value [1, 7] was 8.61 ± 2.19 (25.4) µg × h/mL and the Cmax [1, 7] was 0.11 ± 0.02 (21.8) µg/mL. The “kel (elimination rate constant)” value [1, 6] was 0.023 ± 0.012 (51.6) h^−1, the “t1/2 (elimination phase)” value [1, 6] was 39.30 ± 22.54 (57.4) h and the tmax [1, 6] was 14.50 ± 11.40 (78.6) h. The “kel (elimination rate constant)” value [1, 7] was 0.016 ± 0.010 (60.9) h^−1, the “t1/2 (elimination phase)” value [1, 7] was 53.31 ± 25.23 (47.3) h and the tmax [1, 7] was 16.38 ± 8.21 (50.1) h.
In the case of `CNC(=O)c1cc(Oc2ccc(NC(=O)Nc3ccc(Cl)c(C(F)(F)F)c3)cc2)ccn1` [sorafenib], the “lower clearance in the ISOR+MF group” value ([2]; male, Wistar) is reported as 0.4 fold, the “AUC0–∞” value ([2]; male, Wistar, po, 100 mg/kg) is reported as 67050 ± 16700 ng·h/mL and the “AUC0–t/(D/kg)” value [2] is reported as 1.25 ± 0.32 µg·kg·h/mL/mg. The “AUC0–∞/(D/kg)” value [2] was 1.33 ± 0.33 µg·kg·h/mL/mg, the adverse effects ([2]; po, 100 mg/kg) was “did not cause any adverse effects” and the CL/F [3] was 13.3 mL/min/kg.

Reference: PMC8707786 (Pharmaceutics, 2021)
